Test results as given in patent US11161830B2, “4-pyridone compound or salt thereof, and pharmaceutical composition and formulation including same” (priority 2017, dated 2021).
Several values for one entry are separate records, joined by “and”; a condition that tells them apart may be missing. Equal entries are not always repeated.

What was measured:
[1] = system: HBV genotype C; test: Test Example 3-2: in vivo efficacy study in PXB mouse (chimeric mouse with human hepatocytes), first and second study; set-up: species or system hepatitis B virus; details: second study, orally 3 mg/kg twice a day for 14 days from day 35, individual mice, 3 mg/kg
Description: An in vivo efficacy study with a PXB mouse (a chimeric mouse with human hepatocytes) was carried out in PhenixBio Co., Ltd. 19-Week-or-more-old male mice having body weights of 10.5 g or more after the elapse of 13 weeks or more from the infection with HBV genotype C were allocated into the respective groups and used. The studies were carried out twice, and a 21-day administration withdrawal period was provided between the first study and the second study.
The first administration day in the first study was taken as day 0, and the compound of Example 6-5 was orally administered at 1 mg/kg, 3 mg/kg, 10 mg/kg, and 30 mg/kg twice a day, or 0.5% methylcellulose (vehicle) was orally administered once a day for 14 days. Before administration on day 0, day 3, Day 7, and day 10, and on day 14, the blood was collected from the orbital venous plexus under anesthesia with isoflurane.
The first administration day in the second study was taken as day 35, and the compounds of Examples 19-2 and 20-2 were each orally administered at 3 mg/kg twice a day, or 0.5% methylcellulose (vehicle) was orally administered once a day for 14 days. Before administration on day 35, day 38, day 42, and day 45, the blood was collected from the orbital venous plexus under anesthesia with isoflurane. On day 49, the blood was collected from the heart under anesthesia with isoflurane.
The serum was separated from the collected blood and purified with a QIAamp (registered trademark) DNA Blood Mini Kit (manufactured by QIAGEN). The amount of HBV-DNA in the obtained solution was absolutely quantified by a real-time PCR method. In addition, the amount of HBsAg in the serum was absolutely quantified by chemiluminescent enzyme immunoassay using Lumipulse (registered trademark) HBsAg-HQ (manufactured by Fujirebio Inc.).

[2] = system: HBV genotype C; test: Test Example 3-3: in vivo efficacy study in PXB mouse (chimeric mouse with human hepatocytes); set-up: species or system hepatitis B virus; details: individual mice
Description: An in vivo efficacy study with a PXB mouse (a chimeric mouse with human hepatocytes) was carried out in PhenixBio Co., Ltd. Male mice having body weights of 15 g or more after the elapse of 8 weeks from the infection with HBV genotype C were allocated into the respective groups and used.
The compounds of Example 20-2 was orally administered at 2 mg/kg, 6 mg/kg, and 20 mg/kg once a day, and at 1 mg/kg, 3 mg/kg, and 10 mg/kg twice a day, or 0.5% methylcellulose (vehicle) was orally administered once a day for 14 days. A first administration day was taken as day 0, and before administration on day 0, day 3, Day 7, and day 10, and on day 14, the blood was collected from the orbital venous plexus under anesthesia with isoflurane.
The serum was separated from the collected blood and purified with a QIAamp (registered trademark) DNA Blood Mini Kit (manufactured by QIAGEN). The amount of HBV-DNA in the obtained solution was absolutely quantified by a real-time PCR method. In addition, the amount of HBsAg in the serum was absolutely quantified by chemiluminescent enzyme immunoassay using Lumnipulse (registered trademark) HBsAg-HQ (manufactured by Fujirebio Inc.).

[3] = orally 1 mg/kg twice a day, Day 0 (before administration), 1 mg/kg
[4] = orally 1 mg/kg twice a day, Day 3, 1 mg/kg
[5] = orally 1 mg/kg twice a day, Day 7, 1 mg/kg
[6] = orally 1 mg/kg twice a day, Day 10, 1 mg/kg
[7] = orally 1 mg/kg twice a day, Day 14, 1 mg/kg
[8] = orally 2 mg/kg once a day, Day 0 (before administration), 2 mg/kg
[9] = orally 2 mg/kg once a day, Day 3, 2 mg/kg
[10] = orally 2 mg/kg once a day, Day 7, 2 mg/kg
[11] = orally 2 mg/kg once a day, Day 10, 2 mg/kg
[12] = orally 2 mg/kg once a day, Day 14, 2 mg/kg
[13] = orally 3 mg/kg twice a day, Day 0 (before administration), 3 mg/kg
[14] = orally 3 mg/kg twice a day, Day 3, 3 mg/kg
[15] = orally 3 mg/kg twice a day, Day 7, 3 mg/kg
[16] = orally 3 mg/kg twice a day, Day 10, 3 mg/kg
[17] = orally 3 mg/kg twice a day, Day 14, 3 mg/kg
[18] = orally 6 mg/kg once a day, Day 0 (before administration), 6 mg/kg
[19] = orally 6 mg/kg once a day, Day 3, 6 mg/kg
[20] = orally 6 mg/kg once a day, Day 7, 6 mg/kg
[21] = orally 6 mg/kg once a day, Day 10, 6 mg/kg
[22] = orally 6 mg/kg once a day, Day 14, 6 mg/kg
[23] = orally 10 mg/kg twice a day, Day 0 (before administration), 10 mg/kg
[24] = orally 10 mg/kg twice a day, Day 3, 10 mg/kg
[25] = orally 10 mg/kg twice a day, Day 7, 10 mg/kg
[26] = orally 10 mg/kg twice a day, Day 10, 10 mg/kg
[27] = orally 10 mg/kg twice a day, Day 14, 10 mg/kg
[28] = orally 20 mg/kg once a day, Day 0 (before administration), 20 mg/kg
[29] = orally 20 mg/kg once a day, Day 3, 20 mg/kg
[30] = orally 20 mg/kg once a day, Day 7, 20 mg/kg
[31] = orally 20 mg/kg once a day, Day 10, 20 mg/kg
[32] = orally 20 mg/kg once a day, Day 14, 20 mg/kg

COC1CN(c2nc3ccc(-n4cc(C(=O)O)c(=O)cc4-c4ccc(N5CC[C@@H](OC)C5)c(F)c4)cc3s2)C1 [Example 20-2]
HBV-DNA in blood ([1]; Day 35 (before administration)): 8.2E+08 copies/mL and 8.3E+08 copies/mL
HBsAg in serum ([1]; Day 35 (before administration)): 2,556 IU/mL and 3,408 IU/mL
HBV-DNA in blood ([1]; Day 38): 4.6E+08 copies/mL and 4.0E+08 copies/mL
HBsAg in serum ([1]; Day 38): 948 IU/mL and 1,061 IU/mL
HBV-DNA in blood ([1]; Day 42): 2.6E+08 copies/mL and 5.0E+08 copies/mL
HBsAg in serum ([1]; Day 42): 832 IU/mL and 1,478 IU/mL
HBV-DNA in blood ([1]; Day 45): 3.5E+08 copies/mL and 3.1E+08 copies/mL
HBsAg in serum ([1]; Day 45): 859 IU/mL and 1,185 IU/mL
HBV-DNA in blood ([1]; Day 49): 2.3E+08 copies/mL and 2.7E+08 copies/mL
HBsAg in serum ([1]; Day 49): 1,444 IU/mL and 924 IU/mL
HBV-DNA in blood [2, 3]: 2.8E+08 copies/mL and 1.4E+08 copies/mL
HBsAg in serum [2, 3]: 3,352 IU/mL and 2,640 IU/mL and 4,436 IU/mL
HBV-DNA in blood [2, 4]: 1.7E+08 copies/mL and 1.2E+08 copies/mL and 3.7E+08 copies/mL
HBsAg in serum [2, 4]: 3,056 IU/mL and 2,193 IU/mL and 4,655 IU/mL
HBV-DNA in blood [2, 5]: 1.4E+08 copies/mL
HBsAg in serum [2, 5]: 3,033 IU/mL and 1,691 IU/mL and 3,774 IU/mL
HBV-DNA in blood [2, 6]: 1.4E+08 copies/mL and 3.7E+08 copies/mL
HBsAg in serum [2, 6]: 2,356 IU/mL and 1,694 IU/mL and 3,775 IU/mL
HBV-DNA in blood [2, 7]: 2.5E+08 copies/mL and 1.3E+08 copies/mL and 6.9E+08 copies/mL
HBsAg in serum [2, 7]: 2,833 IU/mL and 2,077 IU/mL and 4,276 IU/mL
HBV-DNA in blood [2, 8]: 4.5E+08 copies/mL and 4.7E+08 copies/mL and 4.4E+08 copies/mL
HBsAg in serum [2, 8]: 2,534 IU/mL and 2,701 IU/mL and 3,776 IU/mL
HBV-DNA in blood [2, 9]: 3.3E+08 copies/mL
HBsAg in serum [2, 9]: 2,393 IU/mL and 1,918 IU/mL and 3,502 IU/mL
HBV-DNA in blood [2, 10]: 1.7E+08 copies/mL and 5.3E+08 copies/mL
HBsAg in serum [2, 10]: 1,612 IU/mL and 2,211 IU/mL and 3,236 IU/mL
HBV-DNA in blood [2, 11]: 4.2E+08 copies/mL and 4.3E+08 copies/mL and 3.9E+08 copies/mL
HBsAg in serum [2, 11]: 1,946 IU/mL and 1,609 IU/mL and 3,623 IU/mL
HBV-DNA in blood [2, 12]: 4.3E+08 copies/mL
HBsAg in serum [2, 12]: 1,526 IU/mL and 2,321 IU/mL and 3,366 IU/mL
HBV-DNA in blood [2, 13]: 3.4E+08 copies/mL and 3.8E+08 copies/mL
HBsAg in serum [2, 13]: 2,582 IU/mL and 2,395 IU/mL and 3,879 IU/mL
HBV-DNA in blood [2, 14]: 2.2E+08 copies/mL and 1.8E+08 copies/mL and 2.1E+08 copies/mL
HBsAg in serum [2, 14]: 1,034 IU/mL and 1,048 IU/mL and 1,801 IU/mL
HBV-DNA in blood [2, 15]: 2.8E+08 copies/mL and 1.2E+08 copies/mL and 1.8E+08 copies/mL
HBsAg in serum [2, 15]: 1,275 IU/mL and 785 IU/mL and 1,286 IU/mL
HBV-DNA in blood [2, 16]: 4.3E+08 copies/mL
HBsAg in serum [2, 16]: 1,017 IU/mL and 900 IU/mL and 1,379 IU/mL
HBV-DNA in blood [2, 17]: 3.7E+08 copies/mL and 3.4E+08 copies/mL and 3.6E+08 copies/mL
HBsAg in serum [2, 17]: 1,051 IU/mL and 910 IU/mL and 1,375 IU/mL
HBV-DNA in blood [2, 18]: 6.7E+08 copies/mL and 1.6E+08 copies/mL and 4.3E+08 copies/mL
HBsAg in serum [2, 18]: 3,883 IU/mL and 1,905 IU/mL and 3,703 IU/mL
HBV-DNA in blood [2, 19]: 3.8E+08 copies/mL and 2.0E+08 copies/mL and 1.7E+08 copies/mL
HBsAg in serum [2, 19]: 3,331 IU/mL and 1,529 IU/mL and 2,004 IU/mL
HBV-DNA in blood [2, 20]: 1.5E+08 copies/mL and 3.3E+08 copies/mL
HBsAg in serum [2, 20]: 3,453 IU/mL and 1,321 IU/mL and 2,025 IU/mL
HBV-DNA in blood [2, 21]: 3.8E+08 copies/mL and 2.2E+08 copies/mL and 1.5E+08 copies/mL
HBsAg in serum [2, 21]: 2,920 IU/mL and 1,342 IU/mL and 1,100 IU/mL
HBV-DNA in blood [2, 22]: 2.2E+08 copies/mL and 1.5E+08 copies/mL and 7.7E+08 copies/mL
HBsAg in serum [2, 22]: 2,569 IU/mL and 1,312 IU/mL and 1,879 IU/mL
HBV-DNA in blood [2, 23]: 4.2E+08 copies/mL and 3.8E+08 copies/mL
HBsAg in serum [2, 23]: 3,678 IU/mL and 2,545 IU/mL and 3,727 IU/mL
HBV-DNA in blood [2, 24]: 1.7E+08 copies/mL and 2.5E+08 copies/mL
HBsAg in serum [2, 24]: 994 IU/mL and 735 IU/mL and 901 IU/mL
HBV-DNA in blood [2, 25]: 2.1E+08 copies/mL and 1.6E+08 copies/mL and 1.1E+08 copies/mL
HBsAg in serum [2, 25]: 707 IU/mL and 547 IU/mL and 708 IU/mL
HBV-DNA in blood [2, 26]: 1.5E+08 copies/mL and 1.7E+08 copies/mL
HBsAg in serum [2, 26]: 861 IU/mL and 593 IU/mL and 676 IU/mL
HBV-DNA in blood [2, 27]: 2.0E+08 copies/mL
HBsAg in serum [2, 27]: 931 IU/mL and 620 IU/mL and 738 IU/mL
HBV-DNA in blood [2, 28]: 2.8E+08 copies/mL
HBsAg in serum [2, 28]: 3,225 IU/mL and 3,886 IU/mL and 2,106 IU/mL
HBV-DNA in blood [2, 29]: 2.1E+08 copies/mL and 2.0E+08 copies/mL and 9.7E+07 copies/mL
HBsAg in serum [2, 29]: 1,239 IU/mL and 1,019 IU/mL and 517 IU/mL
HBV-DNA in blood [2, 30]: 1.6E+08 copies/mL and 1.4E+08 copies/mL and 8.2E+07 copies/mL
HBsAg in serum [2, 30]: 1,003 IU/mL and 877 IU/mL and 385 IU/mL
HBV-DNA in blood [2, 31]: 3.3E+08 copies/mL and 2.5E+08 copies/mL and 1.5E+08 copies/mL
HBsAg in serum [2, 31]: 1,200 IU/mL and 1,104 IU/mL and 493 IU/mL
HBV-DNA in blood [2, 32]: 2.1E+08 copies/mL and 2.9E+08 copies/mL and 1.6E+08 copies/mL
HBsAg in serum [2, 32]: 1,037 IU/mL and 1,159 IU/mL and 497 IU/mL
